Where only a bound is given, the exact number is not on record here.

For three molecules, IC50 results are on record in ChEMBL document CHEMBL1145911, “Rational design and synthesis of androgen receptor-targeted nonsteroidal anti-androgen ligands for the tumor-specific delivery of a doxorubicin-formaldehyde conjugate” (J Med Chem, 2003).

In this assay the target is T1, Androgen receptor (Homo sapiens, UniProt P10275).
T1 sequence (P10275 whole entry): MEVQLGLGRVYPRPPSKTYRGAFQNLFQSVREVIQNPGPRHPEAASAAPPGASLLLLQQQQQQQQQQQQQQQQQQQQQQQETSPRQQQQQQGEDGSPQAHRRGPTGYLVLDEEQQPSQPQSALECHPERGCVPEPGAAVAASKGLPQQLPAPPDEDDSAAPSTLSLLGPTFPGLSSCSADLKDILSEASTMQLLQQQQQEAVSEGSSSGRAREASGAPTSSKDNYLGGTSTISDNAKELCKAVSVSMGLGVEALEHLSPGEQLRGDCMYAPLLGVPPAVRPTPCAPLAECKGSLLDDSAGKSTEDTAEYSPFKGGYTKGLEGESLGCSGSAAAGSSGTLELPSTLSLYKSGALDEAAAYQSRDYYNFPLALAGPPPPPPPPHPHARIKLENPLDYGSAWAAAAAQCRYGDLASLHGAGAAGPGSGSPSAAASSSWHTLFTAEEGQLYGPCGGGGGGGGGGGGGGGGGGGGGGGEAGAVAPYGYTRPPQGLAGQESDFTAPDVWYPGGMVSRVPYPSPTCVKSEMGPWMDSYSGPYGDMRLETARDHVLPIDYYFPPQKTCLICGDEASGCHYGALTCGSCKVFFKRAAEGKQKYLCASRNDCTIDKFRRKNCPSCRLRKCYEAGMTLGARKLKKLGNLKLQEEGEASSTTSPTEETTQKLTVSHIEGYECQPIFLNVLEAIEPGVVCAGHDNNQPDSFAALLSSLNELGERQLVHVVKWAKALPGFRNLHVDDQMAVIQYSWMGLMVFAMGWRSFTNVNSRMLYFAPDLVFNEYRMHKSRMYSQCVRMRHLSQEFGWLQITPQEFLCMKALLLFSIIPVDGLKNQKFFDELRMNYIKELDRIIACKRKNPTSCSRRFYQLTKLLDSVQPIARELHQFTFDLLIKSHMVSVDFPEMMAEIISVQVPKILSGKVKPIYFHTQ
The assay is described as follows: biochemical.
For orientation: IC50 means the midpoint of a concentration-inhibition curve. The molecule `COc1cccc2c1C(=O)c1c(O)c3c(c(O)c1C2=O)C[C@@](O)(C(=O)CO)C[C@@H]3OC1C[C@H](NCNC(=O)c2cc(COCC#CCN3C(=O)N(c4ccc(C#N)c(C(F)(F)F)c4)C(=O)C3(C)C)ccc2O)[C@H](O)[C@H](C)O1` (stereo partly drawn) gave an IC50 of 90 nM.

With `CC1(C)C(=O)N(c2ccc(C#N)c(C(F)(F)F)c2)C(=O)N1CCCCN1CCN(CCOCc2ccc(O)c(C(N)=O)c2)CC1`, the IC50 is greater than 1000 nM. Take `CC1(C)C(=O)N(c2ccc(C#N)c(C(F)(F)F)c2)C(=O)N1CCOCCN1CCN(CCOCc2ccc(O)c(C(N)=O)c2)CC1`: it took 346 nM to reach half-maximal inhibition (IC50).
